Results: US9045551B2, “Anti-DLL4/VEGF dual variable domain immunoglobulin and uses thereof” (AbbVie Inc., priority 2012, dated 2015)
Marks after values point to notes of the source that are not given here.

Columns and labels:
[1] = test system: MDA-MB-231-luc human breast xenograft tumors; assay: MDA-MB-231-luc breast xenograft, combination with paclitaxel; type: in vivo, female SCID mice; conditions: 25 mg/kg IP, q4dX3
Experimental: The effect of anti-DLL4-VEGF DVD-Igs in combination with chemotherapy on tumor growth was evaluated on MDA-MB-231-luc human breast xenograft tumors in female SCID mice. Briefly, 2×10^6 cells were implanted in the mammary fat pad. Tumors were allowed to establish for 13 days, at which point tumor volume was determined using electronic caliper measurements using the formula: L×W^2/2. Mice were allocated into treatment groups (n=10 per group) so that each cohort had equivalent mean tumor volume of 150 mm^3 prior to initiation of therapy. Animals were dosed with paclitaxel and/or anti-DLL4-VEGF DVD-Ig, at the dose and schedule in Table 32. Tumor volume was measured twice a week for the duration of the experiment. Additionally, bioluminescent images were acquired to monitor and track spontaneous metastasis of cancer cell to the lung and/or lymph nodes Results are shown in Table 32.

[2] = test system: SUM149PT human breast xenograft tumors; assay: SUM149PT breast xenograft, combination with paclitaxel (Table 33); type: in vivo, female SCID mice; conditions: 25 mg/kg IP, [q4dX3]X4
Experimental: (§1) The effect of anti-DLL4-VEGF DVD-Igs in combination with chemotherapy on tumor growth was evaluated on SUM149PT human breast xenograft tumors in female SCID mice. Briefly, 1×10^6 cells were inoculated subcutaneously into the right hind flank. Tumors were allowed to establish for 28 days, at which point tumor volume was determined using electronic caliper measurements using the formula: L×W^2/2. Mice were allocated into treatment groups (n=9 per group) so that each cohort had equivalent mean tumor volume of 183 mm^3 prior to initiation of therapy. Animals were dosed with paclitaxel and/or anti-DLL4-VEGF DVD-Ig, at the dose and schedule in Table 33. Tumor volume was measured twice a week for the duration of the experiment.

[3] = test system: SUM149PT human breast xenograft tumors; assay: SUM149PT breast xenograft, combination with paclitaxel and anti-VEGF mAb (Table 34); type: in vivo, female SCID mice; conditions: 25 mg/kg IP, [q4dX3]X4; day 18 post size match
Experimental: as §1, with “25” for “28”, “(n=10” for “(n=9”, “228” for “183”, “paclitaxel, anti-VEGF mAb” for “paclitaxel”, “34.” for “33.”

[4] = test system: U87-MG human glioblastoma xenograft tumors; assay: U87-MG glioblastoma xenograft, combination with Temozolomide (Example 6); type: in vivo, female SCID mice; conditions: 5 mg/kg IP
Experimental: The effect of anti-DLL4/anti-VEGF DVDs in combination with chemotherapy on tumor growth was evaluated on U87-MG human glioblastoma xenograft tumors in female SCID mice. Briefly, 3×10^6 cells were inoculated subcutaneously into the right hind flank. Tumors were allowed to establish for 22 days, at which point tumor volume was determined using electronic caliper measurements using the formula: L×W^2/2. Mice were allocated into treatment groups (n=10 per group) so that each cohort had equivalent mean tumor volume of 207 mm^3 prior to initiation of therapy. Animals were dosed intraperitoneally with a single dose of Temozolomide® and/or four weekly doses of anti-DLL4/anti-VEGF DVD, with tumor volume measured twice a week for the duration of the experiment.

[5] = test system: U87-MG human glioblastoma xenograft tumors; assay: U87-MG glioblastoma xenograft, combination with temozolomide (Example 11); type: in vivo, female SCID mice; conditions: 5 mg/kg IP, qdX1
Experimental: (§2) The effect of anti-DLL4-VEGF DVD-Igs in combination with chemotherapy on tumor growth was evaluated on U87-MG human glioblastoma xenograft tumors in female SCID mice. Briefly, 3×10^6 cells were inoculated subcutaneously into the right hind flank. Tumors were allowed to establish for 13 days, at which point tumor volume was determined using electronic caliper measurements using the formula: L×W^2/2. Mice were allocated into treatment groups (n=10 per group) so that each cohort had equivalent mean tumor volume of 207 mm^3 prior to initiation of therapy. Animals were dosed with temozolomide, anti-VEGF mAb, and/or anti-DLL4-VEGF DVD-Ig at the dose and schedule in Table 30. Tumor volume was measured twice a week for the duration of the experiment.

[6] = test system: PA0123 patient-derived human pancreatic xenograft tumors; assay: PA0123 patient-derived pancreatic xenograft, combination with gemcitabine; type: in vivo, female NSG mice; conditions: 100 mg/kg IP, [q3dX4]X2
Experimental: The effect of anti-DLL4-VEGF DVD-Igs in combination with chemotherapy on tumor growth was evaluated on PA0123 patient-derived human pancreatic xenograft tumors in female NSG mice. Briefly, frozen tumor fragments were implanted subcutaneously into the right hind flank. Tumors were allowed to establish for 28 days, at which point tumor volume was determined using electronic caliper measurements using the formula: L×W^2/2. Mice were allocated into treatment groups (n=7 per group) so that each cohort had equivalent mean tumor volume of 193 mm^3 prior to initiation of therapy. Animals were dosed with gemcitabine and/or anti-DLL4-VEGF DVD-Ig, at the dose and schedule in Table 31. Tumor volume was measured twice a week for the duration of the experiment.

[7] = test system: SW-48 human colon xenograft tumors; assay: SW-48 colon xenograft, combination with irinotecan; type: in vivo, female SCID mice; conditions: 60 mg/kg IP, q3dX4
Experimental: as §2, with “SW-48” for “U87-MG”, “colon” for “glioblastoma”, “5×10^6” for “3×10^6”, “211” for “207”, “irinotecan,” for “temozolomide,”, “27.” for “30.”

[8] = test system: HT-29 human colon xenograft tumors; assay: HT-29 colon xenograft, combination with irinotecan; type: in vivo, female SCID mice; conditions: 60 mg/kg IP, q3dX4
Experimental: The effect of anti-DLL4-VEGF DVD-Igs in combination with chemotherapy on tumor growth was evaluated on HT-29 human colon xenograft tumors in female SCID mice. Briefly, 2×10^6 cells were inoculated subcutaneously into the right hind flank. Tumors were allowed to establish for 25 days, at which point tumor volume was determined using electronic caliper measurements using the formula: L×W^2/2. Mice were allocated into treatment groups (n=10 per group) so that each cohort had equivalent mean tumor volume of 209 mm^3 prior to initiation of therapy. Animals were dosed with irinotecan and/or anti-DLL4-VEGF DVD-Ig, at the dose and schedule in Table 29. Tumor volume was measured twice a week for the duration of the experiment.

[9] = target: T1, human DLL4529 (Homo sapiens, UniProt Q9NR61); assay: BIACORE surface plasmon resonance binding kinetics, human DLL4; conditions: BIAcore human DLL4529, 25° C.
T1 construct: a purified recombinant DLL4 extracellular domain (ECD)
Experimental: A BIACORE assay (Biacore, Inc, Piscataway, N.J.) was used to evaluate the binding of DVDs to a purified recombinant DLL4 extracellular domain (ECD) or to VEGF165, as determined by surface plasmon resonance-based measurements made on a Biacore 2000, Biacore 3000 or Biacore T100 (GE Healthcare, Piscataway, N.J.) at 25° C. For DLL4 binding kinetic measurements the assay buffer was HBS-EPB: 10 mM Hepes, pH7.5, 150 mM NaCl, 3 mM EDTA, 0.005% Tween 20, 0.1 mg/ml BSA (Sigma A7906). For VEGF binding kinetic measurements the assay buffer was HBS-EP+(3N01B): 10 mM Hepes, pH7.5, 300 mM NaCl, 3 mM EDTA, 0.05% Tween 20, 0.1 mg/ml BSA (Sigma A7906). For example, approximately 9000 RU of goat anti-human Fc specific polyclonal antibody (Thermo Fisher Scientific Inc., Rockford, Ill.) diluted in 10 mM sodium acetate (pH 4.5) is directly immobilized across a CM5 research grade biosensor chip using a standard amine coupling kit according to manufacturer's instructions and procedures at 25 ug/ml. […] The equilibrium dissociation constant KD (M) of the reaction between antibodies and the target antigen is then calculated from the kinetic rate constants by the following formula: KD=Koff/Kon. Binding is recorded as a function of time and kinetic rate constants are calculated. In this assay, on-rates as fast as 10^6 M^−1s^−1 and off-rates as slow as 10^−6 s^−1 can be measured.

Molecule: CC(=O)O[C@H]1C(=O)[C@@]2(C)[C@H]([C@H](OC(=O)c3ccccc3)[C@]3(O)C[C@H](OC(=O)[C@H](O)[C@@H](NC(=O)c4ccccc4)c4ccccc4)C(C)=C1C3(C)C)[C@]1(OC(C)=O)CO[C@@H]1C[C@@H]2O [paclitaxel, reference compound]
- % met incidence (Percent of animals with detectable signal in the lung and/or lymph nodes) ([1]; bioluminescent imaging, day 22 post size match, treatment control group 100%): 40* %
- % TGI (Percent tumor growth inhibition) ([1]; day 15 post size match): 78*** %
- % TGD (Percent tumor growth delay) ([1]; endpoint of 1000 mm^3): 106*** %
- % TGI (Percent tumor growth inhibition) ([2]; day 22 post size match): 60*** %
- % TGD (Percent tumor growth delay) ([2]; endpoint of 1000 mm^3): 173*** %
- % TGI (Percent tumor growth inhibition) [3]: 50* %

Molecule: Cn1nnc2c(C(N)=O)ncn2c1=O [Temozolomide, reference compound]
- % TGI (Percent tumor growth inhibition) ([4]; qdX1, day 19 post size match): 65*** %
- % TGD (Percent tumor growth delay) ([4]; qdX1, endpoint of 1000 mm^3): 45*** %
- % TGI (Percent tumor growth inhibition) ([5]; day 19 post size match): 65*** %
- % TGD (Percent tumor growth delay) ([5]; endpoint of 1000 mm^3): 45*** %

Molecule: Nc1ccn([C@@H]2O[C@H](CO)[C@@H](O)C2(F)F)c(=O)n1 [gemcitabine, reference compound]
- % TGI (Percent tumor growth inhibition) ([6]; day 38 post size match): 48** %
- % TGD (Percent tumor growth delay) ([6]; endpoint of 1000 mm^3): 43** %

Molecule: CCc1c2c(nc3ccc(OC(=O)N4CCC(N5CCCCC5)CC4)cc13)-c1cc3c(c(=O)n1C2)COC(=O)[C@]3(O)CC [irinotecan, reference compound]
- % TGI (Percent tumor growth inhibition) ([7]; day 18 post size match): 77*** %
- % TGD (Percent tumor growth delay) ([7]; endpoint of 1000 mm^3): 106*** %
- % TGI (Percent tumor growth inhibition) ([8]; day 20 post size match): 47* %
- % TGD (Percent tumor growth delay) ([8]; endpoint of 1000 mm^3): 60* %

B1: h1A11.1: humanized anti-DLL4 mAb, parent antibody; VH SEQ ID NO: 39, VL SEQ ID NO: 40 (antibody, V domains shown)
VH: EVQLVESGGGLVQPGGSLRLSCAASGFTFSNFPMAWVRQAPGKGLEWVATISSSDGTTYYRDSVKGRFTISRDNAKNSLYLQMNSLRAEDTAVYYCARGYYNSPFAYWGQGTLVTVSS
VL: DIQMTQSPSSLSASVGDRVTITCRASEDIYSNLAWYQQKPGKAPKLLIYDTNNLADGVPSRFSGSGSGTDFTLTISSLQPEDFATYYCQQYNNYPPTFGQGTKLEIKR
- Koff [9]: 0.00193 s⁻¹
- Kon [9]: 160000 M⁻¹ s⁻¹
